What all share (test): NCI tumour cell line growth inhibition, 48 h
The subject of assay [1] is CAKI-1.
Assay [2] has as its system CCRF-CEM.
Assay [3] has as its system DU-145.
For assay [4], the system named is EKVX.
For assay [5], the system named is HCT-116.
In assay [6] the test system is HL-60.
Assay [7] deals with K562.
Assay [8] deals with KM12.
In assay [9] the test system is MDA-MB-435.
Assay [10] deals with NCI-H23.
Assay [11] relates to NCI-H460.
Assay [12] has as its system OVCAR-4.
Assay [13] deals with OVCAR-5.
In assay [14] the test system is OVCAR-8.
Assay [15] deals with RPMI-8226.
In assay [16] the test system is RXF 393.
Assay [17] deals with SF-268.
The subject of assay [18] is SK-MEL-28.
Assay [19] deals with SK-MEL-5.
Assay [20] concerns SW-620.

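Dose response: 5 concentrations. Exposure: 48 h. Format: 96-well plates. Endpoint: linear interpolation; highest concentration if not reached. The concentration for 50% growth inhibition is given as GI50.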 Active and inactive are the calls of the source. Rule as the data show it: active = GI50 up to about 1.1 µM and inactive = higher.

For `O=C1c2cc3c(cc2CC12Cc1cc4c(cc1C2)CCC4)CCC3`, the GI50 in [1] is > 100 µM (inactive); in assay [2], > 100 µM (inactive); in assay [3], > 100 µM (inactive); in assay [4], > 100 µM (inactive); in assay [5], > 100 µM (inactive); in [6], 59.6 µM (inactive). The GI50 was 27 µM (inactive) in [7]; > 100 µM (inactive) in [8]; > 100 µM (inactive) in assay [9]; > 100 µM (inactive) in [10]; > 100 µM (inactive) in assay [11]; > 100 µM (inactive) in [12]. For the same compound, the GI50 in [13], in assay [14], in assay [15], in assay [16], in [17] and in assay [18] was > 100 µM (inactive) throughout. Besides, the GI50 in [19] and in assay [20] was > 100 µM (inactive) throughout.

`O=c1c2c3c(sc2nc2n1N=C(c1ccc([N+](=O)[O-])cc1)CS2)CCCC3`: the GI50 in assay [1], in assay [2], in [3], in [4], in assay [5] and in [6] was > 100 µM (inactive) each time. Further, the GI50 in [7], in assay [8], in assay [9], in assay [10], in assay [11] and in assay [12] was > 100 µM (inactive) each time. The GI50 in assay [13], in assay [14], in assay [15], in assay [16], in assay [17] and in assay [18] was > 100 µM (inactive) each time. For the same compound, the GI50 in [19] and in [20] was > 100 µM (inactive) in each case.

As for `COc1cc2c(cc1OC)C(=O)/C(=C/c1ccc(N(C)C)cc1)CC2`, the GI50 in assay [1] is > 10 µM (inactive); in assay [2] it was 9.77 µM (inactive); in assay [3], > 10 µM (inactive); in assay [4], > 10 µM (inactive); in assay [5] it was > 10 µM (inactive); in [6], > 10 µM (inactive). Moreover, the GI50 in assay [7], in assay [8], in assay [9], in assay [10], in assay [11] and in assay [12] was > 10 µM (inactive) in each case. Besides, the GI50 in assay [13], in assay [14], in [15], in assay [16], in assay [17] and in [18] was > 10 µM (inactive) throughout. Moreover, the GI50 in assay [19] and in [20] was > 10 µM (inactive) throughout.

In the case of `O=S(=O)(O)Nc1ccc(-c2nc3ccccc3s2)cc1Cl`, the GI50 in assay [1], in assay [2], in assay [3], in [4], in [5] and in assay [6] was > 100 µM (inactive) each time. For the same compound, the GI50 in [7], in assay [8], in assay [9], in assay [10], in assay [11] and in assay [12] was > 100 µM (inactive) throughout. In addition, the GI50 in assay [13] was 16.1 µM (inactive); in [14], > 100 µM (inactive); in assay [15] it was > 100 µM (inactive); in assay [16], > 100 µM (inactive); in assay [18] it was > 100 µM (inactive); in assay [19], > 100 µM (inactive). In addition, the GI50 in [20] is > 100 µM (inactive).

Take `C/C(=N\NC(=O)c1ccncc1)c1ccc2ccccc2c1O`: the GI50 in assay [1] was 2.25 µM (inactive); in assay [2] it was 0.232 µM (active); in assay [3] it was 2.25 µM (inactive); in assay [4], 0.832 µM (active); in [5], 0.608 µM (active); in [6] it was 0.638 µM (active). The GI50 was 1.84 µM (inactive) in assay [7]; 2.31 µM (inactive) in assay [8]; 8.99 µM (inactive) in assay [9]; 3.82 µM (inactive) in [10]; 0.356 µM (active) in assay [11]; 0.966 µM (active) in assay [12]. The GI50 in assay [13] is 6.12 µM (inactive); in assay [14] it was 2.18 µM (inactive); in [15], 4.33 µM (inactive); in assay [16], 3.08 µM (inactive); in [17], 0.802 µM (active); in assay [18], 17.2 µM (inactive). For the same compound, the GI50 in assay [19] was 1.67 µM (inactive); in [20], 3.12 µM (inactive).

As to `COC(=O)NNc1c([N+](=O)[O-])cnn(-c2ccccc2)c1=O`, the GI50 is 3.98 µM (inactive) in [1]; 0.302 µM (active) in [2]; 5.62 µM (inactive) in assay [3]; 3.82 µM (inactive) in [4]; 1.78 µM (inactive) in assay [5]; 1.39 µM (inactive) in assay [6]. Besides, the GI50 was 1.04 µM (active) in assay [7]; 5.19 µM (inactive) in [8]; 1.66 µM (inactive) in [9]; 2.67 µM (inactive) in assay [10]; 3.96 µM (inactive) in assay [11]; 2.07 µM (inactive) in assay [12]. The GI50 in [13] was 4.44 µM (inactive); in assay [14], 1.78 µM (inactive); in assay [15], 2.44 µM (inactive); in [16], 3.73 µM (inactive); in [17], 3.1 µM (inactive); in assay [18], 3.83 µM (inactive). In addition, the GI50 in assay [19] was 4.07 µM (inactive); in [20], 1.07 µM (active).

On to `O=c1cc(-c2ccccc2)nc2[nH]ccn12`, for which the GI50 in assay [1], in assay [2], in assay [3], in [4], in [5] and in [6] was > 10 µM (inactive) in each case. Also, the GI50 in [7], in assay [8], in assay [9], in assay [10], in [11] and in assay [12] was > 10 µM (inactive) each time. In addition, the GI50 in [13], in assay [14], in [15], in [16], in assay [17] and in [18] was > 10 µM (inactive) each time. The GI50 in [19] and in [20] was > 10 µM (inactive) throughout.

Consider `COc1ccc2c(c1)C(=O)CC(C(N)=O)C2` (configuration not stated), for which the GI50 in assay [1], in assay [2], in assay [3], in assay [4], in [5] and in assay [6] was > 100 µM (inactive) each time. The GI50 in assay [7], in assay [8], in assay [9], in assay [10], in [11] and in assay [12] was > 100 µM (inactive) in each case. For the same compound, the GI50 in assay [13], in assay [14], in assay [15], in [16], in assay [17] and in assay [18] was > 100 µM (inactive) in each case. For the same compound, the GI50 in assay [19] and in assay [20] was > 100 µM (inactive) throughout.

Regarding `COc1ccc(C(C2=C(O)COC2=O)c2cc3c(cc2O)OCO3)cc1OC` (configuration not stated), the GI50 in assay [1], in assay [2], in [3], in assay [4], in assay [5] and in assay [6] was > 100 µM (inactive) throughout. Moreover, the GI50 in [7], in [8], in assay [9], in assay [11], in [12] and in assay [13] was > 100 µM (inactive) each time. Moreover, the GI50 in [14], in assay [15], in assay [16], in assay [17], in assay [18] and in [19] was > 100 µM (inactive) each time. Also, in assay [20], the GI50 is > 100 µM (inactive).

In the case of `CSc1nc(NCc2ccccc2)c2cnn(COCCO)c2n1`, the GI50 in [1] is 61.9 µM (inactive); in assay [2], 51.6 µM (inactive); in assay [3], 64.3 µM (inactive); in assay [4] it was 21.4 µM (inactive); in assay [5] it was 62.8 µM (inactive); in [6] it was 42.7 µM (inactive). Also, the GI50 in assay [7] was 40.1 µM (inactive); in assay [8] it was 80 µM (inactive); in [9] it was 27.4 µM (inactive); in assay [10], 24.5 µM (inactive); in [11], 39.3 µM (inactive); in assay [12] it was 29.4 µM (inactive). Moreover, the GI50 in assay [13] was > 100 µM (inactive); in [14] it was 42.7 µM (inactive); in [15], 38.5 µM (inactive); in [16], 29 µM (inactive); in [17], 43.8 µM (inactive); in assay [19], 41.5 µM (inactive). For the same compound, the GI50 in assay [20] is > 100 µM (inactive).

For the origin of these results see ChEMBL document CHEMBL1201862, “PubChem BioAssay data set” (2004).
